Key:
[1] = tested on: ras-transformed fibroblasts (ras 3T3 cells); assay: MTS-based cell-viability assay, control cells (FIG. 3B); settings: for survival (viable surviving fraction): MTS assay at day 5, over the dose range examined; for effect on cell growth: singly or together
Procedure: Screening Assay. […] Cells were plated and attached overnight in growth media consisting of DMEM with 10% fetal bovine serum (FBS). […] Media with agents was replaced every 48 hours. At day 5 and 8, media was withdrawn and cells were fixed and stained in 0.5% crystal violet in 70% methanol. The crystal violet stained cells reveal a dense intact monolayer in media absent either agent. […] This observed synergistic effect is an important finding in the treatment of diseases characterized by hyperproliferation of cells. […] For cell-counting assays, 5×10^3 cells were plated in triplicate in 100 mm cell culture dishes and allowed to attach overnight as above in DMEM+10% FBS and treated with agents in DMEM+5% PPP. Media and agents were replaced every 48 hours. At day 5 cells were trypsinized and counted with hemacytometer.
For the MTS-based cell-viability assay, 5×10^3 cells were plated in 24 well dishes overnight in DMEM+10% FBS. […] Each condition was assayed in triplicate. Media and agents were replaced every 48 hours and viable surviving fraction estimated using the MTS assay at day 5 following treatment.

[2] = tested on: simian sarcoma virus-transformed NIH/3T3 (sis 3T3) fibroblast cells; assay: Screening assay, crystal violet staining of cells in 12-well dishes (FIG. 1); type: cell-based; settings: single agent in increasing amounts (STI-571 0-3 μM; ADW 0-1 μM), DMEM+5% PPP, crystal violet at day 5 and 8
Procedure: Screening Assay. […] Cells were plated and attached overnight in growth media consisting of DMEM with 10% fetal bovine serum (FBS). […] Media with agents was replaced every 48 hours. At day 5 and 8, media was withdrawn and cells were fixed and stained in 0.5% crystal violet in 70% methanol. […] For cell-counting assays, 5×10^3 cells were plated in triplicate in 100 mm cell culture dishes and allowed to attach overnight as above in DMEM+10% FBS and treated with agents in DMEM+5% PPP. Media and agents were replaced every 48 hours. At day 5 cells were trypsinized and counted with hemacytometer.

[3] = tested on: chronic myeloid leukemia and gastrointestinal stromal tumours; settings: humans; cited from earlier work

| SMILES | survival (viable surviving fraction) [1] | effect on cell growth [1] | density of cells in the monolayer [2] | efficacy in treating chronic myeloid leukemia and gastrointestinal stromal tumours [3] |
| --- | --- | --- | --- | --- |
| Nc1ncnc2c1c(-c1cccc(OCc3ccccc3)c1)cn2[C@H]1C[C@H](CN2CCCC2)C1 [ADW, trans-5-(3-benzyloxy-phenyl)-7-(3-pyrrolidin-1-ylmethyl-cyclobutyl)-7H-pyrrolo[2,3-d]pyrimidin-4-ylamine] | decreased survival | little effect |  |  |
| Cc1ccc(NC(=O)c2ccc(CN3CCN(C)CC3)cc2)cc1Nc1nccc(-c2cccnc2)n1 [STI-571] | no effect on survival | little effect | visibly depleted | effective |

From patent US20050215564A1, “Methods and compositions for treating hyperproliferative conditions” (priority 2002, published 2005)
